Measured values as given in the supplement of paper PMC10307832.

Tests used:
Assay in all cases: relative viability (nuclei count vs DMSO), 5 days (fraction); higher = more cells survive
[1] = compound: C=CC(=O)N1CCC[C@@H](n2nc(-c3ccc(Oc4ccccc4)cc3)c3c(N)ncnc32)C1 [Ibrutinib] + CC(=O)c1c(C)c2cnc(Nc3ccc(N4CCNCC4)cn3)nc2n(C2CCCC2)c1=O [Palbociclib] (partner 0.5 µM)
Summary of the method: (§1)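 Dosing by pin tool came one day after lung cancer cell lines were seeded in 1536-well plates, using either one drug or a fixed anchor-drug dose plus five library-drug doses (not always all listed) in √10 steps. After 5 days, nuclei were counted on 4× images. Relative viability is treated-well nuclei count divided by vehicle-well nuclei count, and values are medians of duplicate plates.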

[2] = compound: C=CC(=O)N1CCC[C@@H](n2nc(-c3ccc(Oc4ccccc4)cc3)c3c(N)ncnc32)C1 [Ibrutinib] + C[C@]1(O)C[C@@H](c2nc(-c3ccc4ccc(-c5ccccc5)nc4c3)c3c(N)nccn32)C1 [Linsitinib] (partner 1 µM)
Summary of the method: as §1

[3] = compound: C=CC(=O)Nc1cc(-n2c(=O)ccc3cnc4ccc(-c5ccc(NS(C)(=O)=O)cc5)cc4c32)ccc1C [BMX-IN-1] + CC1(C)CCC(c2ccc(Cl)cc2)=C(CN2CCN(c3ccc(C(=O)NS(=O)(=O)c4ccc(N[C@H](CCN5CCOCC5)CSc5ccccc5)c(S(=O)(=O)C(F)(F)F)c4)cc3)CC2)C1 [Navitoclax] (partner 0.5 µM)
Summary of the method: as §1

[4] = compound: C=CC(=O)Nc1cc(-n2c(=O)ccc3cnc4ccc(-c5ccc(NS(C)(=O)=O)cc5)cc4c32)ccc1C [BMX-IN-1] + C[C@@H](Oc1cc(-c2cnn(C3CCNCC3)c2)cnc1N)c1c(Cl)ccc(F)c1Cl [Crizotinib] (partner 1 µM)
Summary of the method: as §1

Cell Line | relative viability ([1]; first compound 0.005 µM) | relative viability ([1]; first compound 0.01581 µM) | relative viability ([1]; first compound 0.05 µM) | relative viability ([1]; first compound 0.1581 µM) | relative viability ([1]; first compound 0.5 µM) | relative viability ([2]; first compound 0.005 µM) | relative viability ([2]; first compound 0.01581 µM) | relative viability ([2]; first compound 0.05 µM) | relative viability ([2]; first compound 0.1581 µM) | relative viability ([2]; first compound 0.5 µM) | relative viability ([3]; first compound 0.02 µM) | relative viability ([3]; first compound 0.2 µM) | relative viability ([3]; first compound 0.6325 µM) | relative viability ([3]; first compound 2 µM) | relative viability ([4]; first compound 0.02 µM) | relative viability ([4]; first compound 0.2 µM) | relative viability ([4]; first compound 0.6325 µM) | relative viability ([4]; first compound 2 µM)
PC-14 | 0.527 | 0.495 | 0.576 | 0.575 | 0.172 | 1 | 0.949 | 0.976 | 0.902 | 0.462 | 1.02 | 1.29 | 1.01 | 1.06 | 0.909 | 1.07 | 0.964 | 0.987
RERF-LC-KJ | 1.12 | 0.915 | 0.928 | 1.09 | 0.931 | 0.903 | 0.804 | 0.818 | 0.824 | 0.778 | 0.821 | 0.994 | 1.3 | 0.749 | 0.813 | 1.09 | 0.865 | 0.807
SK-LU-1 | 0.372 | 0.365 | 0.392 | 0.407 | 0.365 | 0.776 | 1.02 | 1.21 | 1.21 | 1.04 | 1 | 0.69 | 0.789 | 1.02 | 1.02 | 0.906 | 0.868 | 0.904
SW 1573 |  | 0.345 | 0.419 | 0.393 | 0.477 | 0.732 | 0.761 | 0.925 | 0.814 | 0.809 | 1.22 | 1.39 | 1.21 | 0.808 | 0.869 | 0.97 | 0.879 | 0.767
UMC-11 |  | 0.335 | 0.359 | 0.417 | 0.355 | 0.903 | 0.987 | 1.17 | 1.14 | 0.938 | 0.285 | 0.327 | 0.283 | 0.294 | 0.821 | 0.579 | 0.633 | 0.578
